Seven molecules from patent US9464073B2, “Pyrimidine hydroxy amide compounds as HDAC6 selective inhibitors” (Acetylon Pharmaceuticals, Inc., priority 2014, dated 2016) can be followed below.

Molecules are shown by their SMILES. Entries after “also recorded” stand apart in the source; their conditions may differ.

Data set [1] in a line: Mouse pharmacokinetic studies. Type of data set: in vivo. The conditions noted are these: male C57BL/6 mice, IV 1 mg/kg, from AUC in plasma and brain; for Kp: mouse, read-out: Mouse plasma/brain ratio. The protocol: Male C57BL/6 mice were fasted overnight. Compounds of the invention as well as two previously known HDAC6 inhibitors, Compounds A and B, were dissolved in dimethyl acetamide at 10 times the final concentration, then Solutol HS 15 (BASF) was added to a final concentration of 10%. Finally 80% saline was added and vortexed to achieve a clear solution. Fifteen animals were injected via the tail vein with 1 mg/kg compound. Blood was collected by retro-orbital bleed at 5 minutes, 15 minutes, 30 minutes, 1 hour, 2 hours, 4 hours, 8 hours and 24 hours after dosing. At 5 minutes, 30 minutes, 1 hour and 4 hours after dosing three animals per time point were sacrificed and brains were removed. The blood was centrifuged at 2000 g for 5 minutes at 4° C. to obtain plasma. Brain samples were homogenized in PBS. The plasma and brain homogenate were extracted with acetonitrile and the level of compound was analyzed by LC/MS/MS. The level of compound in plasma was calculated from a standard curve in rat plasma and the level in brain was calculated from a standard curve in brain homogenate. The area under the curve in plasma and brain were calculated using WinNonLin software. The brain to plasma ratio was determined using the area under the curve values for the two compartments.

A short description of data set [2]: Rat pharmacokinetic studies. In kind it is in vivo. The note with it: plasma, male SD rats; for clearance: IV 1 mg/kg; for bioavailability: PO 5 mg/kg vs IV 1 mg/kg, dose adjusted AUC. Here is the method:
Male SD rats were fasted overnight. Compounds of the invention as well as two previously known HDAC6 inhibitors, Compounds A and B were dissolved in dimethyl acetamide at 10 times the final concentration, then Solutol HS 15 (BASF) was added to a final concentration of 10%. Finally 80% saline was added and vortexed to achieve a clear solution. For the IV dosing three animals were injected via the foot dorsal vein with 1 mg/kg compound. For the PO dosing 5 mg/kg of compound was delivered by oral gavage. Blood was collected via the tail vein into K2EDTA tubes at 5 minutes, 15 minutes, 30 minutes, 1 hour, 2 hours, 4 hours, 8 hours and 24 hours after dosing. The blood was centrifuged at 2000 g for 5 minutes at 4° C. to obtain plasma. The plasma was extracted with acetonitrile and the level of compound was analyzed by LC/MS/MS. The level of compound in plasma was calculated from a standard curve in rat plasma. The IV clearance and area under the curve were calculated using WinNonLin software. The dose adjusted area under the curve for the IV and oral dosing were used to calculate the oral bioavailability. Compounds A and B, previously known HDAC6 inhibitors, are shown below (See, e.g., U.S. Pat. No. 8,614,223): […]

A further data set has as its target HDAC6 (Homo sapiens (Human), UniProt Q9UBN7). The experiment in a line: HDAC enzyme assay (HDAC6). In kind it is biochemical. Here is the method:
(§1) Compounds for testing were diluted in DMSO to 50 fold the final concentration and a ten point three fold dilution series was made. The compounds were diluted in assay buffer (50 mM HEPES, pH 7.4, 100 mM KCl, 0.001% Tween-20, 0.05% BSA, 20 μM TCEP) to 6 fold their final concentration. The HDAC enzymes (purchased from BPS Biosciences) were diluted to 1.5 fold their final concentration in assay buffer. The tripeptide substrate and trypsin at 0.05 μM final concentration were diluted in assay buffer at 6 fold their final concentration. The final enzyme concentrations used in these assays were 3.3 ng/ml (HDAC1), 0.2 ng/ml (HDAC2), 0.08 ng/ml (HDAC3) and 2 ng/ml (HDAC6). The final substrate concentrations used were 16 μM (HDAC1), 10 μM (HDAC2), 17 μM (HDAC3) and 14 μM (HDAC6).
(§2) Five μl of compounds and 20 μl of enzyme were added to wells of a black, opaque 384 well plate in duplicate. Enzyme and compound were incubated together at room temperature for 10 minutes. Five μl of substrate was added to each well, the plate was shaken for 60 seconds and placed into a Victor 2 microtiter plate reader. The development of fluorescence was monitored for 60 min and the linear rate of the reaction was calculated. The IC50 was determined using Graph Pad Prism by a four parameter curve fit.

For another data set, the target named is HDAC2 (Homo sapiens (Human), UniProt Q92769). Put plainly: HDAC enzyme assay (HDAC2). In kind it is biochemical. Here is the method: as §1, §2
A further data set deals with HDAC1 (Homo sapiens (Human), UniProt Q13547). Put plainly: HDAC enzyme assay (HDAC1). Type of data set: biochemical. Here is the method:
as §1, §2

A further data set addresses HDAC3 (Homo sapiens (Human), UniProt O15379). The experiment in a line: HDAC enzyme assay (HDAC3). In kind it is biochemical. The protocol: as §1, §2
A further data set deals with taxol treated rats. Put plainly: Taxol induced neuropathic pain study in rats (Von Frey testing). Type of data set: in vivo, rat. The protocol: This study included a histology endpoint in addition to the von Frey testing for paw sensitivity.
Neuropathic pain is induced by a 0.5 ml/kg injection of Taxol (2 mg/kg) administered IP on days 0-12. The development of neuropathic pain is confirmed by measuring mechanical allodynia (Von Frey test) on study day 13.
Allodynic response to tactile stimulation is assessed using the Von Frey apparatus (Touch Test®).
The rat will be placed in an enclosure and positioned on a metal mesh surface, but allowed to move freely. The rats' cabins are covered with red cellophane to diminish environmental disturbances. The test begins after a cessation of exploratory behavior. The set of Von Frey monofilaments provide an approximate logarithmic scale of actual force and a linear scale of perceived intensity.
The operating principle: when the tip of a fiber of given length and diameter is pressed against the skin at right angles, the force of application increases as long as the researcher continues to advance the probe until the fiber bends. After the fiber bends, the probe continues to advance, causing the fiber to bend more, but without additional force being applied. […] The Touch Test™ Sensory Evaluator can be used on the plantar surfaces of the rat's foot. The animal indicates sensation by pulling back its paw. The minimal force needed to elevate the withdrawal reflex is considered/designated as the value of reference. In order to achieve paw withdrawal, the pressure applied is sometimes greater than 60 g, often requiring the researcher to apply enough pressure with the Von Frey filament to actually lift the paw of the naive animal. Decreases in force needed to induce withdrawal are indicative of allodynia, as the force applied is a non-painful stimulus under normal conditions.

Sequence of HDAC1 (Q13547 whole entry): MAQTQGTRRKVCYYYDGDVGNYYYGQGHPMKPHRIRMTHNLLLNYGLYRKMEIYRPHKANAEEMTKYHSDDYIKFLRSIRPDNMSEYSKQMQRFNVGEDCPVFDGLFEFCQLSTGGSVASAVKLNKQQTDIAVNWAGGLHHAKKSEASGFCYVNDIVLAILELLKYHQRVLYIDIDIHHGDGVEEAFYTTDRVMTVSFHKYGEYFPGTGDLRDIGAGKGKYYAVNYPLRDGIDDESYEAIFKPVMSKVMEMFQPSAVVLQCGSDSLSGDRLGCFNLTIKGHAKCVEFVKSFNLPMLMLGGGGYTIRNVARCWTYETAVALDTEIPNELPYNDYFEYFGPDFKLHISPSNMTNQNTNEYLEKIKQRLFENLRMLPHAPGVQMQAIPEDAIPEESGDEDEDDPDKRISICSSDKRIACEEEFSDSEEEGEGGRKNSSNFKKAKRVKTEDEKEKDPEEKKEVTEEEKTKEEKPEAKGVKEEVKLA
Sequence of HDAC6 (Q9UBN7 whole entry): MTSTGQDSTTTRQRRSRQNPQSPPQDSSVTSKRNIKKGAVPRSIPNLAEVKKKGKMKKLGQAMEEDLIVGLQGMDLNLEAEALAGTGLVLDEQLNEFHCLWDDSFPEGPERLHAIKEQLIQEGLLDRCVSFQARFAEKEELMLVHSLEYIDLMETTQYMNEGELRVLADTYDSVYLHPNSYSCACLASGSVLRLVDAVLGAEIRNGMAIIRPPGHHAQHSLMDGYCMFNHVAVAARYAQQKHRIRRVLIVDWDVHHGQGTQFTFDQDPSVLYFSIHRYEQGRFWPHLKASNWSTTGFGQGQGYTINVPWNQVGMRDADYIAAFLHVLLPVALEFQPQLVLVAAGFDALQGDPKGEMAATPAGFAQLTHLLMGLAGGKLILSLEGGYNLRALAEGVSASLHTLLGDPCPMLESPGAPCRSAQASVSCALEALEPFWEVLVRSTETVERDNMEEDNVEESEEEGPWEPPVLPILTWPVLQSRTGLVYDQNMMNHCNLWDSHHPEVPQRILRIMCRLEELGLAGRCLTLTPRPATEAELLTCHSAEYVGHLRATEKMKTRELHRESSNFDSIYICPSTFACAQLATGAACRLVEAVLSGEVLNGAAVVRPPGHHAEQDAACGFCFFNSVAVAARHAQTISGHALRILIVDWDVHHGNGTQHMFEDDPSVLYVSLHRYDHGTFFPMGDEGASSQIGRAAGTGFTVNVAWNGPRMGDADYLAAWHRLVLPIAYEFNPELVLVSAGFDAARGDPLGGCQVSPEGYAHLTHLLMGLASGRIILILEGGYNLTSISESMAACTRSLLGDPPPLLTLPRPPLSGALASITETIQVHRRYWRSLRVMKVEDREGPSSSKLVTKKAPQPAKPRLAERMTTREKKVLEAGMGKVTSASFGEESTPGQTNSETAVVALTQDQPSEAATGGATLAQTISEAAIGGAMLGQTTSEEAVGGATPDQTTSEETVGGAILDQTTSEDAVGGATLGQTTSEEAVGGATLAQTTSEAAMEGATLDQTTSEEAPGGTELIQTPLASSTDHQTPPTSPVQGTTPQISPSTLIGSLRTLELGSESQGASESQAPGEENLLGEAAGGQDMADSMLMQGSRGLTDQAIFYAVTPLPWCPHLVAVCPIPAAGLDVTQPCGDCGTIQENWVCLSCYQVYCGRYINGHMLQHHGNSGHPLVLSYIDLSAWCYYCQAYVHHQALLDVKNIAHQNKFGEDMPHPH
Sequence of HDAC2 (Q92769 whole entry): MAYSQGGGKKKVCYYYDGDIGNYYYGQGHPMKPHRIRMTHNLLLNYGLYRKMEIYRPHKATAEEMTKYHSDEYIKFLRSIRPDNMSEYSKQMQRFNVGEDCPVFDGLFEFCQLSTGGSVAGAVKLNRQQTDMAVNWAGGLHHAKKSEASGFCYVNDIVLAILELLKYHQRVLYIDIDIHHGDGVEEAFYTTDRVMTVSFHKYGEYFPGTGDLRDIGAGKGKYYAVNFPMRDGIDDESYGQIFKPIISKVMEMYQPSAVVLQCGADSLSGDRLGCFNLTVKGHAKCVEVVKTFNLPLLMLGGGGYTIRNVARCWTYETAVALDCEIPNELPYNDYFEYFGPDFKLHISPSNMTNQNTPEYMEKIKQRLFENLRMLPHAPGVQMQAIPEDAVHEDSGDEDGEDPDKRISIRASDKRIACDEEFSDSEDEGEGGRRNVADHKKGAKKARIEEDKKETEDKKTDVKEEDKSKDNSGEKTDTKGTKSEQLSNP
Sequence of HDAC3 (O15379 whole entry): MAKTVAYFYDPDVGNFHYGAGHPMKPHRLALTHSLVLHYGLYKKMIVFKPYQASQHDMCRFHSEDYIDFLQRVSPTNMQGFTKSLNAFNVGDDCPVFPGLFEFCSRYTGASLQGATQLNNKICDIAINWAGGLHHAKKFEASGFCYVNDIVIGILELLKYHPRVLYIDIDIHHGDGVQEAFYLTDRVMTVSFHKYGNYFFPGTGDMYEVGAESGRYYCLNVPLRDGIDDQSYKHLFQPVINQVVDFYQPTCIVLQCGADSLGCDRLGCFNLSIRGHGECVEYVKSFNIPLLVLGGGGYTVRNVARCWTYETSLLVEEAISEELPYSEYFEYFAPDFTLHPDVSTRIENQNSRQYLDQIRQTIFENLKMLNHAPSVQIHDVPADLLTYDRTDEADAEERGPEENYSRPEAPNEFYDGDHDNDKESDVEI
Sequence of HDAC3 (Q9Y618 395-489 partner): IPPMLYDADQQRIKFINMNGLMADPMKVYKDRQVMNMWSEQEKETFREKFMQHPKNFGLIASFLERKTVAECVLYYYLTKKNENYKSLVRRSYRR

With `O=C(NO)c1cnc(NC2(c3cccc(F)c3)CCCCC2)nc1` [Compound B, reference compound], the Mouse plasma/brain ratio in data set [1] was 1.28. In addition, in data set [2], the clearance is 38.3 mL/min/kg and the bioavailability is 7.9%.
In the case of `O=C(NO)c1cnc(NC2(c3cc(F)ccc3F)CCOCC2)nc1` [Compound 002], the IC50 at HDAC6 is 2.4 nM; against HDAC2, 108 nM; against HDAC1 it was 117 nM; against HDAC3 it was 671 nM. The Kp in data set [1] came to 0.45. The same molecule had a clearance in data set [2] of 93.3 mL/min/kg. The same molecule returned a bioavailability in data set [2] of 18.4%.
Regarding `NCC1(CC(=O)O)CCCCC1` [gabapentin, reference compound], the “withdrawal force (Von Frey)” value was 58.30 ± 1.70 g in the data set on taxol treated rats (150 mg/kg IP, 2 hours post dosing, study day 13); 60.00 ± 0.00 g in the data set with taxol treated rats (150 mg/kg IP, 2 hours post dosing, study day 14); 58.30 ± 1.70 g with taxol treated rats (150 mg/kg IP, 2 hours post dosing, study day 15).
Consider `O=C(NO)c1cnc(NC2(c3ccccc3)CCC(F)(F)CC2)nc1` [Compound 003], for which the IC50 at HDAC6 stood at 3.7 nM; against HDAC2, 982 nM; against HDAC1 it was 961 nM; against HDAC3, 4380 nM. For the same molecule, the “withdrawal force (Von Frey)” value in the data set with taxol treated rats (1 mg/kg PO b.i.d., study day 15) worked out at 58.30 ± 1.70 g. The “mean group withdrawal force (Von Frey)” value in the data set on taxol treated rats (study day 13 pre-dosing, last dose on day 12 (b.i.d.)) was 41.10 ± 5.88 g. Also, the “reversal of nociception / tactile allodynia” value in the data set with taxol treated rats (taxol treated rats, 1, 3, 10 mg/kg PO b.i.d.) was “completely reversed nociception; also recorded: reduced tactile allodynia”. Also, the Kp in data set [1] is 0.67. Besides, the clearance in data set [2] was 61.7 mL/min/kg. Moreover, in data set [2], the bioavailability was 41.5%.
In the case of `O=C(NO)c1cnc(NC2(c3cc(F)cc(F)c3)CCCCC2)nc1` [Compound 001], the IC50 against HDAC6 amounted to 2.9 nM; at HDAC2, 870 nM; at HDAC1 it was 1040 nM; against HDAC3, 6200 nM. The Kp in data set [1] worked out at 2.55. For the same molecule, the clearance in data set [2] was 91.7 mL/min/kg. Further, in data set [2], the bioavailability turned out to be 11.1%.
As to `O=C(NO)c1cnc(NC2(c3cccc(F)c3)CCC3(CC2)OCCO3)nc1` [Compound 004], the IC50 against HDAC6 is 3.9 nM; against HDAC2, 833 nM; against HDAC1 it was 703 nM; against HDAC3 it was 1820 nM.
As for `O=C(NO)c1cnc(NC2(c3ccccc3)CC2)nc1` [Compound A, reference compound], the Mouse plasma/brain ratio in data set [1] is recorded as 1.23. In data set [2], this molecule gave a clearance of 100 mL/min/kg and a bioavailability of 16.5%.
